Experiment [1] deals with T1, AT2R (Rattus norvegicus (Rat), UniProt P35351). Briefly: AT2R ex vivo autoradiography receptor occupancy in rat adrenal sections after oral dosing. Also noted: species or system Sprague Dawley rats. To be noted: for IC50 / IC80: plasma concentration plotted vs % receptor occupancy, rat; for receptor occupancy at 0.3 mg/kg: oral dose 0.3 mg/kg; for receptor occupancy at 1 mg/kg: oral dose 1 mg/kg; for receptor occupancy at 3 mg/kg: oral dose 3 mg/kg; for receptor occupancy at 10 mg/kg: oral dose 10 mg/kg; for ex vivo IC50 (TER) / ex vivo IC80 (TER): rat receptor occupancy. The procedure:
The ability for a compound to engage its target may be measured by determining compound's receptor occupancy. An ex vivo autoradiography assay was conducted as described herein.
Twenty male Sprague Dawley rats (140-150 gms, Envigo) were maintained under controlled laboratory conditions on a 12 hr light cycle with ad lib access to food and water. […] Following a pre-determined survival time, plasma and adrenals were collected and frozen at −80° C. until analyzed. Frozen 20 μm sections of an adrenal from each animal were collected onto gelatin-coated slides and stored at −80° C. […] The specific ligand binding for each animal is calculated by subtracting the non-specific binding from the total bound.

The next experiment concerns the target rAT2R (Rattus norvegicus (Rat), UniProt P35351). The experiment can be described thus: Rat binding affinity, competitive radioligand binding assay (SPA), rAT2R HEK293 membranes. To be noted: rat AT2R. The protocol: Membrane Preparation Protocol (hAT2R HEK293 and rAT2R HEK293)
Receptor Binding Protocol
The assays were performed with a scintillation proximity assay (SPA) method using polyvinyltoluene (PVT) wheat germ agglutinin-coupled SPA beads (Perkin Elmer Cat. #RPNQ0001). Assay buffer containing BSA (50 mM Tris-HCl, pH 7.5, 150 mM NaCl, 0.1% w/v fatty-acid free BSA) was used for preparing radioligand, membrane and SPA bead reagent dilution to working stock concentrations. Reference control and test compounds were diluted to obtain ten-point concentration response curves using a four-fold serial dilution protocol onto assay plates, dispensed acoustically from DMSO stock using automated ECHO instrument technology (Labcyte, Inc.). Concentration response curves were routinely generated with the highest final assay concentration for the reference angiotensin-II control at 50 nM, and the highest final assay concentration for the test compounds at 50 μM. […] The hAT2R membrane was combined with PVT-WGA SPA beads to obtain a final assay concentration of 0.25 μg/well hAT2R membrane+0.1 mg/well PVT-WGA SPA bead. And the hAT1R membrane PVT-WGA SPA bead final concentrations was 0.5 μg/well hAT1R membrane+0.1 mg/well PVT-WGA SPA bead. […] For all assays, radioligand addition was followed by the addition of membrane-SPA bead mixture, i.e., the hAT2R membrane-SPA bead mixture (30 μL), the rAT2R membrane-SPA bead mixture, or the AT1R membrane-SPA bead mixture (30 μL) into the assay plate. All dispensing steps were added using a Multiflo FX (Biotek, Inc.) bulk dispensing instrument. After reagent addition steps, assay plates were sealed, and plate contents mixed for one minute on a benchtop micro-plate shaker. Following a 10-hour incubation at room temperature to allow for bead settling and radioligand binding, bound radioactivity was quantitated using a Microbeta Trilux scintillation counter (Perkin Elmer) and expressed as counts per minute (CPM). The unlabeled angiotensin-II control was included on each plate as an experimental assay reference.
Compounds were tested in a 10-point concentration response curve (CRC) format, with each plate containing the positive control angiotensin-II positive reference compound, and experimental compounds. Maximum binding response (Max) was determined in 32 control wells per plate using assay buffer treatment only, and the minimum binding controls or nonspecific binding response (Min) was also determined in 32 wells per plate by the treatment with 50 nM angiotensin-II. All test sample concentration responses were normalized to the control response and calculated as a percent of the maximal response after correcting for nonspecific binding as shown below: % Specific inhibition=100%−[(CPM−Min)/(Max−Min)×100%]
Percent specific binding (y-axis) was plotted versus the log concentration of compound (x-axis).

Experiment [2] addresses T1, AT2R. Briefly: Inhibition of C21-induced increase in dermal blood flow (laser Doppler imaging). The format is in vivo, Sprague Dawley rats.

Molecules are shown by their SMILES.

T1 sequence (P35351 whole entry): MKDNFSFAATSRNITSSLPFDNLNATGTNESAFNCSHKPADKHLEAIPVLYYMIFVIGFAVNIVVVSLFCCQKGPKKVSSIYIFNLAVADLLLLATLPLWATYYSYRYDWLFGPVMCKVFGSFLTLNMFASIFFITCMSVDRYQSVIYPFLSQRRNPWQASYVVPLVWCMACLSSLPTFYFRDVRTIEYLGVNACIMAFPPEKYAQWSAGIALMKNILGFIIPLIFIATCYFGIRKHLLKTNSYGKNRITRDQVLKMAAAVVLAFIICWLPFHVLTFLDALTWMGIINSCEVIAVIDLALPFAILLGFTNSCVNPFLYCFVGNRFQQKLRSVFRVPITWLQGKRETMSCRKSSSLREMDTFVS
Chain of rAT2R (P35351 whole entry): as above

As a reminder, the IC50 is the concentration at which inhibition is half-maximal. A word on the IC80: it is the point of the concentration-response curve where the effect stands at 80%. By Ki is commonly meant the equilibrium dissociation constant of an inhibitor or competing ligand from its target. Take `CN(C(=O)N1CCC(CC(=O)N(c2ccccc2)C(C2CC2)C2CC2)(C(=O)O)CC1)c1ccc(F)cc1` [Example 18, 4-[2-[N-(dicyclopropylmethyl)anilino]-2-oxo-ethyl]-1-[(4-fluorophenyl)-methyl-carbamoyl]piperidine-4-carboxylic acid]: on AT2R [1], the half-inhibitory concentration (IC50) was 0.114 nM, the IC80 stood at 0.449 nM, the “ex vivo IC50 (TER)” value is recorded as 0.186 TER and the “ex vivo IC80 (TER)” value was 0.731 TER. Also, the receptor occupancy at 0.01 mg/kg at AT2R [1] (rat adrenal, oral dose 0.01 mg/kg, read-out: % RO) is 16.3%. For the same compound, the receptor occupancy at 0.03 mg/kg at AT2R [1] (rat adrenal, oral dose 0.03 mg/kg, read-out: % RO) stood at 65%. Further, the receptor occupancy at 0.1 mg/kg on AT2R [1] (rat adrenal, oral dose 0.1 mg/kg, read-out: % RO) turned out to be 76.3%. For the same compound, at AT2R [1] (rat adrenal, read-out: % RO), the receptor occupancy at 0.3 mg/kg is 79.3%, the receptor occupancy at 1 mg/kg was found to be 93.2%, the receptor occupancy at 3 mg/kg turned out to be 90.9% and the receptor occupancy at 10 mg/kg stood at 93%. This compound gave a Ki at rAT2R of 0.614 nM.

Usually inhibition stands for how much of the control response was suppressed. Take `O=C(N1CCC(CC(=O)N(c2ccccc2)c2ccccc2)(C(=O)O)CC1)N1CCc2ccccc21` [Example 3, 1-(indoline-1-carbonyl)-4-[2-oxo-2-(N-phenylanilino)ethyl]piperidine-4-carboxylic acid]: at AT2R [2] (AT2R agonist C21 intradermal), the “mode of action at AT2R (inhibition of C21-induced dermal blood flow)” value is “acting as a antagonist”. Further, 0.3 mg/kg produced 49.6% inhibition on AT2R [2] (dose 0.3 mg/kg, C21-induced increase in dermal blood flow). This compound gave an inhibition at 3 mg/kg on AT2R [2] (dose 3 mg/kg, C21-induced increase in dermal blood flow) of 62.9%. For the same compound, on AT2R [2] (C21-induced increase in dermal blood flow), the inhibition at 10 mg/kg turned out to be 74.3%. This compound showed an inhibition at 10 mg/kg against AT2R [2] (second, unlabelled column under % Inhibition) of 95.6%. At AT2R [1], the midpoint of inhibition, the IC50, lay at 0.821 nM; the IC80 amounted to 3.34 nM; the “ex vivo IC50 (TER)” value is reported as 0.375 TER; the “ex vivo IC80 (TER)” value was 1.525 TER. In addition, on AT2R [1] (rat adrenal, read-out: % RO), the receptor occupancy at 0.3 mg/kg turned out to be 37.8%, the receptor occupancy at 1 mg/kg was 61.9%, the receptor occupancy at 3 mg/kg came to 83.5% and the receptor occupancy at 10 mg/kg came out at 90.5%. In addition, the affinity at rAT2R corresponds to a Ki of 2.19 nM.

The record behind these values is patent US12122750B2, “AT2R antagonists and uses thereof” (Eli Lilly and Company, priority 2022, dated 2024).
